Results as given in the supplement of paper PMC10307832.

Key:
Experiment in all cases: relative viability (nuclei count vs DMSO), 5 days (fraction); higher = more cells survive
[1] = test system: PC-14
In short: (§1)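 The day after seeding in 1536-well plates, lung cancer cell lines were treated by pin tool with a single drug, or with a fixed anchor-drug dose together with five library-drug doses (not always all listed) in √10 steps. After 5 days, a combined fix-and-stain solution (final 0.05% Triton X-100, 1% formaldehyde, 1 ug/ml Hoechst) was added. Nuclei counted on 4× images gave relative viability as treated counts over vehicle counts, reported as the median of duplicate plates.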

[2] = test system: NCI-H1915
In short: as §1

[3] = test system: NCI-H1355
In short: as §1

[4] = test system: NCI-H1651
In short: as §1

[5] = test system: EPLC-272H
In short: as §1

[6] = test system: NCI-H2347
In short: as §1

[7] = test system: NCI-H2023
In short: as §1

[8] = test system: LU99A
In short: as §1

[9] = test system: HARA
In short: as §1

[10] = test system: NCI-H838
In short: as §1

[11] = test system: NCI-H358
In short: as §1

[12] = test system: NCI-H2342
In short: as §1

[13] = test system: ABC-1
In short: as §1

[14] = test system: HCC-15
In short: as §1

[15] = test system: LC-2-ad
In short: as §1

[16] = test system: SW 1573
In short: as §1

[17] = test system: UMC-11
In short: as §1

[18] = test system: NCI-H650
In short: as §1

[19] = test system: NCI-H1993
In short: as §1

[20] = test system: NCI-H2085
In short: as §1

[21] = test system: NCI-H2126
In short: as §1

[22] = test system: HCC-78
In short: as §1

[23] = test system: COR-L23
In short: as §1

CC1(C)CCC(c2ccc(Cl)cc2)=C(CN2CCN(c3ccc(C(=O)NS(=O)(=O)c4ccc(N[C@H](CCN5CCOCC5)CSc5ccccc5)c(S(=O)(=O)C(F)(F)F)c4)cc3)CC2)C1 [Navitoclax] + O=C(c1cc(Cc2n[nH]c(=O)c3ccccc23)ccc1F)N1CCN(C(=O)C2CC2)CC1 [Olaparib] (partner 8 µM)
relative viability ([1]; first compound 0.005 µM): 0.266 | relative viability ([1]; first compound 0.01581 µM): 0.28 | relative viability ([1]; first compound 0.05 µM): 0.283 | relative viability ([1]; first compound 0.1581 µM): 0.219 | relative viability ([1]; first compound 0.5 µM): 0.235 | relative viability ([2]; first compound 0.005 µM): 0.253 | relative viability ([2]; first compound 0.01581 µM): 0.247 | relative viability ([2]; first compound 0.05 µM): 0.215 | relative viability ([2]; first compound 0.1581 µM): 0.261 | relative viability ([2]; first compound 0.5 µM): 0.254 | relative viability ([3]; first compound 0.005 µM): 0.74 | relative viability ([3]; first compound 0.01581 µM): 0.731 | relative viability ([3]; first compound 0.05 µM): 0.734 | relative viability ([3]; first compound 0.1581 µM): 0.694 | relative viability ([3]; first compound 0.5 µM): 0.806 | relative viability ([4]; first compound 0.005 µM): 0.167 | relative viability ([4]; first compound 0.01581 µM): 0.181 | relative viability ([4]; first compound 0.05 µM): 0.152 | relative viability ([4]; first compound 0.1581 µM): 0.189 | relative viability ([4]; first compound 0.5 µM): 0.197 | relative viability ([5]; first compound 0.005 µM): 0.877 | relative viability ([5]; first compound 0.01581 µM): 0.79 | relative viability ([5]; first compound 0.05 µM): 0.644 | relative viability ([5]; first compound 0.1581 µM): 0.714 | relative viability ([5]; first compound 0.5 µM): 1.18 | relative viability ([6]; first compound 0.005 µM): 0.558 | relative viability ([6]; first compound 0.01581 µM): 0.585 | relative viability ([6]; first compound 0.05 µM): 0.537 | relative viability ([6]; first compound 0.1581 µM): 0.61 | relative viability ([6]; first compound 0.5 µM): 0.51 | relative viability ([7]; first compound 0.005 µM): 0.445 | relative viability ([7]; first compound 0.01581 µM): 0.47 | relative viability ([7]; first compound 0.05 µM): 0.534 | relative viability ([7]; first compound 0.1581 µM): 0.442 | relative viability ([7]; first compound 0.5 µM): 0.496 | relative viability ([8]; first compound 0.005 µM): 0.257 | relative viability ([8]; first compound 0.01581 µM): 0.275 | relative viability ([8]; first compound 0.1581 µM): 0.269 | relative viability ([8]; first compound 0.5 µM): 0.276 | relative viability ([9]; first compound 0.005 µM): 0.763 | relative viability ([9]; first compound 0.01581 µM): 0.752 | relative viability ([9]; first compound 0.05 µM): 0.579 | relative viability ([9]; first compound 0.1581 µM): 0.789 | relative viability ([9]; first compound 0.5 µM): 0.875 | relative viability ([10]; first compound 0.005 µM): 0.775 | relative viability ([10]; first compound 0.01581 µM): 0.818 | relative viability ([10]; first compound 0.05 µM): 0.834 | relative viability ([10]; first compound 0.1581 µM): 0.775 | relative viability ([10]; first compound 0.5 µM): 0.768 | relative viability ([11]; first compound 0.005 µM): 0.566 | relative viability ([11]; first compound 0.01581 µM): 0.751 | relative viability ([11]; first compound 0.05 µM): 0.663 | relative viability ([11]; first compound 0.1581 µM): 0.536 | relative viability ([11]; first compound 0.5 µM): 0.585 | relative viability ([12]; first compound 0.005 µM): 0.421 | relative viability ([12]; first compound 0.01581 µM): 0.44 | relative viability ([12]; first compound 0.05 µM): 0.322 | relative viability ([12]; first compound 0.1581 µM): 0.476 | relative viability ([12]; first compound 0.5 µM): 0.456 | relative viability ([13]; first compound 0.005 µM): 0.909 | relative viability ([13]; first compound 0.01581 µM): 0.783 | relative viability ([13]; first compound 0.05 µM): 0.838 | relative viability ([13]; first compound 0.1581 µM): 0.859 | relative viability ([13]; first compound 0.5 µM): 0.776 | relative viability ([14]; first compound 0.005 µM): 0.716 | relative viability ([14]; first compound 0.01581 µM): 0.787 | relative viability ([14]; first compound 0.05 µM): 0.626 | relative viability ([14]; first compound 0.1581 µM): 0.67 | relative viability ([14]; first compound 0.5 µM): 0.778 | relative viability ([15]; first compound 0.005 µM): 0.729 | relative viability ([15]; first compound 0.01581 µM): 0.744 | relative viability ([15]; first compound 0.05 µM): 0.654 | relative viability ([15]; first compound 0.1581 µM): 0.698 | relative viability ([15]; first compound 0.5 µM): 0.701 | relative viability ([16]; first compound 0.005 µM): 0.486 | relative viability ([16]; first compound 0.01581 µM): 0.528 | relative viability ([16]; first compound 0.05 µM): 0.471 | relative viability ([16]; first compound 0.1581 µM): 0.431 | relative viability ([16]; first compound 0.5 µM): 0.367 | relative viability ([17]; first compound 0.005 µM): 0.89 | relative viability ([17]; first compound 0.01581 µM): 0.361 | relative viability ([17]; first compound 0.05 µM): 0.346 | relative viability ([17]; first compound 0.1581 µM): 0.317 | relative viability ([17]; first compound 0.5 µM): 0.266 | relative viability ([18]; first compound 0.005 µM): 0.395 | relative viability ([18]; first compound 0.01581 µM): 0.453 | relative viability ([18]; first compound 0.05 µM): 0.35 | relative viability ([18]; first compound 0.1581 µM): 0.362 | relative viability ([18]; first compound 0.5 µM): 0.386 | relative viability ([19]; first compound 0.005 µM): 1.09 | relative viability ([19]; first compound 0.01581 µM): 1.32 | relative viability ([19]; first compound 0.05 µM): 0.936 | relative viability ([19]; first compound 0.1581 µM): 0.984 | relative viability ([19]; first compound 0.5 µM): 1.02 | relative viability ([20]; first compound 0.005 µM): 0.74 | relative viability ([20]; first compound 0.01581 µM): 0.864 | relative viability ([20]; first compound 0.05 µM): 0.596 | relative viability ([20]; first compound 0.1581 µM): 0.746 | relative viability ([20]; first compound 0.5 µM): 0.815 | relative viability ([21]; first compound 0.005 µM): 0.912 | relative viability ([21]; first compound 0.01581 µM): 0.994 | relative viability ([21]; first compound 0.05 µM): 0.847 | relative viability ([21]; first compound 0.1581 µM): 0.86 | relative viability ([21]; first compound 0.5 µM): 0.9 | relative viability ([22]; first compound 0.005 µM): 0.844 | relative viability ([22]; first compound 0.01581 µM): 0.776 | relative viability ([22]; first compound 0.05 µM): 0.696 | relative viability ([22]; first compound 0.1581 µM): 0.925 | relative viability ([22]; first compound 0.5 µM): 0.863 | relative viability ([23]; first compound 0.005 µM): 0.374 | relative viability ([23]; first compound 0.01581 µM): 0.405 | relative viability ([23]; first compound 0.05 µM): 0.375 | relative viability ([23]; first compound 0.1581 µM): 0.367 | relative viability ([23]; first compound 0.5 µM): 0.398
